{"source": "patent US6767890B1", "about": "“Peptides having anti-cancer and anti-inflammatory activity” (priority 1998, dated 2004)", "key": {"TNF-α": {"tested_on": "TNF-α", "experiment": "TNF-α radioligand binding", "set-up": "species or system human", "settings": "10.0 μM; specific binding of [125I]TNF-alpha; negative = stimulation", "protocol": "(§1) The peptide was further screened in vitro in a variety of enzyme and biochemical assays. Methods employed were adapted from the scientific literature to maximize reliability and reproducibility.\n(§2) Results presented in Table 10, “Results,” are the average of duplicate determinations, unless otherwise noted.\nRadioligand binding assays were performed under conditions described in Table 8, “Experimental Conditions.” Radioligands employed in this study are given in Table 8, and commercial sources and catalog numbers of the radioligands are provided in Table 7, “Material Sources.” Unlabeled, blocking ligands employed this study are listed in Table 8, “Experimenal Conditions,” along with the commercial sources and catalog number of the unlabeled ligand. The concurrent reference compound (control) employed in each assay is listed in Table 9, “Reference Compound Data,” along with the commercial supplier and catalog number of the compound. Where receptors have been obtained through recombinant expression techniques, the species from which the cDNA was obtained, and the type of expression system employed (mammalian, insect, bacterial) is also given Table 7.\nMaximum total binding and nonspecific binding were determined each time each assay was run. Nonspecific binding was defined as the proportion of total binding not displaced by unlabeled ligand specific for the receptor. […]"}, "Protein Kinase C - γ": {"target": "Protein Kinase C - γ (Oryctolagus cuniculus, UniProt P10829)", "experiment": "Protein Kinase C - γ enzyme assay", "type": "biochemical, rabbit", "settings": "100.0 μM; average of duplicate; negative = stimulation", "protocol": "as §1\nUnless otherwise indicated, the peptide was tested in duplicate at the concentrations indicated for each assay. Results presented in Table 10, “Results,” are the average of duplicate determinations, unless otherwise noted.\n(§3) Enzyme assays were performed under conditions described in Table 8, “Experimental Conditions.”. The commercial suppliers and catalog numbers of substrates employed in this study are given in Table 7, “Material Sources.” The name, commercial source, and catalog numbers of concurrent reference compounds (controls) employed in this study are given in Table 9, “Reference Compound Data.” The reaction catalyzed by each enzyme is listed in Table 8, “Experimental Conditions.”\n(§4) Biochemical assay results are presented in Table 10, as the percent inhibition of specific binding or activity, and unless noted are the average of duplicate tubes tested at each concentration."}, "[1]": {"tested_on": "T1, Ca++/Calmodulin Dep. PK II", "T1 construct": "other: 100.0 μM; average of duplicate; negative = stimulation", "experiment": "Ca++/Calmodulin Dep. PK II enzyme assay", "type": "biochemical, rat", "settings": "100.0 μM; average of duplicate; negative = stimulation", "protocol": "as §1, with “reproducibility. The primary literature reference for each assay is listed in Table 11 opposite the results for each assay.” for “reproducibility.”\nas §2\nReference compounds were tested concurrently at 5 concentrations as an integral part of each assay to ensure the validity of the results obtained.\nas §3, §4"}, "[2]": {"tested_on": "croton oil-induced ear inflammation", "experiment": "Mouse-ear edema model (croton oil)", "type": "in vivo", "settings": "20 λ of 5% peptide in carbopol topically 30 min after 10% croton oil, ear biopsy weight at 24 hrs", "description": "Mouse-ear edema model. Croton-oil, which contains a variety of phorbol esters, and arachidonic acid (AA) are standard inducers of inflammation in mouse ears when applied topically. Phorbol esters, especially phorbol myristyl acetate (PMA), activate one or more isozymes of the ubiquitous membrane receptor, protein kinase C (PKC), which in turn initiates several metabolic cascades leading to inflammation. As is a substrate for one of these cascades, leading to prostaglandin and leukotriene production, both of which are inflammatory. Inhibition of such inflammation by a putative bioactive agent is considered a generalized indicator of potential pharmacologic activity.\nMale Swiss Webster mice (15-20 g) were purchased from B&K Universal, Kent, Wash. and maintained in the laboratory for one day prior to entering the experiment. At t=0, the ventral side of both ears of each mouse was challenged topically with 10 λ of 10% croton oil in acetone. […] The animals were sacrificed by cervical dislocation at t=24 hrs, the ears removed, and a biopsy take from each ear with an 8 mm punch. The biopsy was immediately weighed on a 4-place balance."}, "[3]": {"tested_on": "Adjuvant Induced Arthritis", "experiment": "Adjuvant Induced Arthritis Model", "type": "in vivo", "settings": "rat, 20 mg per KG body weight orally once per day for 14 days, Day 14", "protocol": "Adjuvant Induced Arthritis Model: Male Sprague-Dawley rats (160-180 g) were sensitized by injecting Fruend's Complete Adjuvant (0.5% suspension of killed mycobacterium tuberculosis (H37RA, Difco in mineral oil)). 0.05 ml was administered intradermally at a plantar site on the right hind leg of each rat. The test materials were given orally (by gavage) in 0.5% methylcelluose, at a dose level of 20 milligrams per kilo body weight, and given once per day for 14 days. The administration was started the day after sensitization. The left hind paw was measured just before sensitization and on Day 14, and the plantar edema inhibitory rate and the body weight gain rate were determined in comparison with the nonsensitized rat groups. The paw weights for each group in each test run were averaged. Activity was calculated as follows: [formula]\nThe Anti-inflammatory response is the difference in the mean foot volume. […] FIG. 4."}, "PAF-induced mortality": {"tested_on": "PAF-induced mortality", "experiment": "Platelet Activating Factor (PAF) Antagonism", "type": "in vivo, mouse", "settings": "Peptide 100 mg/kg, WEB-2086 3 mg/kg", "protocol": "(§5) For in vivo assay, distilled water and saline was used as vehicle in oral and intraperitoneal administration, respectively. Dosing volume was 20 ml/kg for mice or 10 ml/kg for rats.\nGroups of 5 male ICR mice weighing 22±2 gms were employed. At dose of 100 mg/kg test substance dissolved in a vehicle of distilled water were administered orally. The control group received vehicle alone. At 60 minutes after dosing, the animals were injected intravenously PAF-acether ([…] IV, dissolved in 0.25% BSA). One hour later, the survival animals were recorded. The prevention of PAF-induced mortality in 50 percent or more (≧50%) of mice indicated significant activity."}, "[4]": {"tested_on": "DNBS-induced distal colitis", "experiment": "Inflammation, Inflammatory Bowel Disease (DNBS distal colitis)", "type": "in vivo, rat", "settings": "PO, Peptide 30 mg/kg × 7, Sulfasalazine 300 mg/kg × 7", "protocol": "as §5\nGroups of 3 Sprague-Dawley derived male rats weighing 150±20 gms and fasted for 24 hours were used. Distal colitis was induced by intra-colonic instillation of DNBS (2,4-dinitrobenzene sulfonic acid, 30 mg in 0.5 ml ethanol 30%) after which air (2 ml) was gently injected through the cannula to ensure that the solution remains in the colon. Test substance was administered PO (30 mg/kg) at 24 and 2 hours before DNBS instillation. Then, the animals received test compound every 24 hours for 5 consecutive days. The control group was given vehicle alone as compound dosing pattern. The animals were sacrificed 24 hours after the final dose of test compound administration and each colon was removed and weighed. Colon-to-body weight ratio was obtained from the percentage of the comparison between the animal colon weight and body weight on the 8th day. A 30 percent or more (±30%) reduction in colon-to-body weight ratio relative to the vehicle treated control group was considered significant."}}, "note": "Several values for one entry are separate records, joined by “and”; a condition that tells them apart may be missing. Equal values may be shown once."}
{"substance": "LEU-PRO-PRO-SER-ARG [Peptide]", "values": [{"measurement": "% Inhibition", "setting": "TNF-α", "result": "−11", "unit": "%"}, {"measurement": "% Inhibition", "setting": "Protein Kinase C - γ", "result": "−6", "unit": "%"}, {"measurement": "% Inhibition", "setting": "[1]", "result": 12, "unit": "%"}, {"measurement": "reduction in swelling compared to vehicle-only treated ears", "setting": "[2]", "result": 61, "unit": "%"}, {"measurement": "anti-inflammatory response (percent inhibition)", "setting": "[3]", "result": 116.3, "unit": "%"}, {"measurement": "% Protection", "setting": "PAF-induced mortality; PO one hour before PAF-acether 100 μg/kg IV", "result": 0, "unit": "%"}, {"measurement": "No. of Survival", "setting": "PAF-induced mortality; of 5 mice, one hour after PAF-acether 100 μg/kg IV, PO one hour before", "result": 0}, {"measurement": "Ratio Net", "setting": "[4]; group mean minus blank-control", "result": 0.276, "unit": "%"}, {"measurement": "Ratio Ind., X (group mean)", "setting": "[4]; group mean", "result": 0.646, "unit": "%"}, {"measurement": "Ratio Ind. (colon-to-body weight ratio)", "setting": "[4]; individual rat, Colon (g)/8th B.W. × 100%", "result": "0.683% and 0.608%"}, {"measurement": "% INH.", "setting": "[4]; reduction in colon-to-body weight ratio relative to vehicle control", "result": 22, "unit": "%"}]}
